According to article PMC2792043 (PLoS ONE, 2009):
Values after ≈ are worked out from the molar mass of the structure shown. Values joined by “and” are separate entries in the source; they are usually repeats but may differ in a detail not shown here. Identical values can stand only once. Counter-ions that a name gives are not always drawn.

Experiments:
[1] = test system: NA activity; type: biochemical
[2] = test system: influenza A PR8 virus; type: cell-based, Influenza A/Puerto Rico/8/34 (H1N1)
[3] = test system: influenza A or B viruses; type: cell-based
[4] = test system: hamsters; details: hamster, in vivo; cited from earlier work
[5] = test system: NMRI mice; details: mouse, in vivo; cited from earlier work
[6] = test system: influenza A PR8 virus; type: cell-based
[7] = in vitro; details: pH 7.2
[8] = test system: influenza A PR8 virus; assay: microbe, parasite or virus in culture; type: cell-based; details: PR8, MDCK, 48 h, read-out: minimum effective dose required to protect 50% of cells (EC50)
[9] = test system: influenza A PR8 virus; type: cell-based, Influenza A/Puerto Rico/8/34 (H1N1); remark: listed apart in the source
[10] = test system: influenza A NC virus; type: cell-based
[11] = test system: influenza A NY virus; type: cell-based
[12] = test system: influenza A strains PR8, NY or NC; type: cell-based
[13] = test system: influenza A and B viruses; type: cell-based
[14] = test system: influenza A PR8 virus; type: cell-based, Influenza A/Puerto Rico/8/34 (H1N1); remark: listed apart in the source
[15] = biological target: NA from influenza NC virus (Influenza A virus, UniProt Q7TG96); type: biochemical; details: read-out: IC50 NA activity
[16] = biological target: recombinant N4 protein (Influenza A virus, UniProt Q6XV43); assay: biochemical
[17] = test system: mice; details: mouse, in vivo; cited from earlier work

**Q.** With `NC12CC3CC(CC(C3)C1)C2` [AH, amantadine hydrochloride] as the molecule, how does the “inhibition of NA activity” value [1] read?
**A.** no inhibition

**Q.** What about the “Virus yield, Cells” value [2] of the same molecule?
**A.** 4.7×10^5 PFU/ml

**Q.** And the “Virus yield, Medium” value [2]?
**A.** 3×10^5 PFU/ml

**Q.** With “N-acetyl-2,3-dehydro-2-deoxyneuraminic acid [NAA]” as the molecule, how does the “inhibition of NA activity” value [1] read?
**A.** inhibited NA activity with very low IC50 values

**Q.** What about the “Virus yield, Cells” value [2] of the same molecule?
**A.** 6.2×10^6 PFU/ml

**Q.** And the “Virus yield, Medium” value [2]?
**A.** 4.7×10^6 PFU/ml

**Q.** With `O=C(O)C1=CC(=C(c2ccc(O)c(C(=O)O)c2)c2ccc(O)c(C(=O)O)c2)C=CC1=O` [ATA, Aurintricarboxylic acid] as the molecule, how does the “number and size of plaques” value [3] read?
**A.** reduced both the number and size of plaques

**Q.** And the “well tolerated infusion dose” value [4]?
**A.** up to 1 mg/kg/hour

**Q.** And the LD50 [5]?
**A.** 340 mg/kg

**Q.** What about the median life span [5] of the same molecule?
**A.** 18 days

**Q.** What about the “reduction of virus abundance in medium” value [6] of the same molecule?
**A.** 93% and 95%

**Q.** And the CC50 at 48 h [7]?
**A.** 577 µg/mL (≈ 1370 µM)

**Q.** What about the EC50 [8] of the same molecule?
**A.** 6.5 µg/mL (≈ 15.4 µM)

**Q.** And the “viral aggregation by electron microscopy” value [9]?
**A.** induce viral aggregation on the cell surface

**Q.** What about the “reduction of virus abundance in medium” value [10] of the same molecule?
**A.** 86% and 94%

**Q.** And the “reduction of virus abundance in medium” value [11]?
**A.** 72% and 81%

**Q.** What about the “protection from virus-induced CPE, prophylactic exposure” value [12] of the same molecule?
**A.** did not protect cells from virus-induced CPE

**Q.** And the “protection of infected MDCK cells (neutral red uptake)” value [12]?
**A.** significantly protected MDCK cells from influenza infection

**Q.** What about the “plaques after pre-incubation of virus with ATA” value [13] of the same molecule?
**A.** reduced the number of plaques

**Q.** What about the “viral NP RNA level” value [14] of the same molecule?
**A.** substantial reduction in viral NP RNA

**Q.** What about the IC50 [15] of the same molecule?
**A.** 39.3 µM

**Q.** And the IC50 [16]?
**A.** 2.37 µM

**Q.** What about the “single dose tolerated well” value [17] of the same molecule?
**A.** ≤ 4 mg/kg

**Q.** And the “Virus yield, Cells” value [2]?
**A.** 5×10^4 PFU/ml

**Q.** What about the “Virus yield, Medium” value [2] of the same molecule?
**A.** 1.3×10^4 PFU/ml

**Q.** And the “magnitude of inhibition, production of infectious viral particles” value [2]?
**A.** at least 3 logs
